By EC50 is commonly meant the concentration needed to bring the measured effect to its halfway point. Broadly, the Emax is the size of the effect at its maximum, as opposed to the concentration needed.

Here are results for three compounds from PMC13372822 (The EMBO Journal, 2026).

Residue numbers refer to the chain shown, from its start.

The target in one experiment is OXGR1 (Homo sapiens, UniProt Q96P68). The experiment is described as follows: Calcium mobilization assay (Fluo-4 AM), wild-type OXGR1 in HEK293. The settings on record: for signal at concentrations exceeding the reported range: bell-shaped response curve; for activity in OXGR1-transfected HEK293 cells: in words. For orientation: Calcium assays in cells follow changes in intracellular calcium, usually with a dye or a luminescent sensor.

The test system of experiment [1] is mock-transfected HEK293 cells. In words: Calcium assay in mock-transfected (empty vector) HEK293 cells. Type of experiment: cell-based. From the text: Figure. R3 | Activity of the compounds on OXGR1 using calcium assays.
Concentration-response curves of the four agonists in activating OXGR1 through the calcium assays. HEK293 cells were transfected with OXGR1 or empty vector by electroporation.
Cells were then loaded with Fluo-4 AM and intracellular calcium changes after stimulation with different compounds were monitored. Responses were normalized to 100% for the maximal response of each compound on OXGR1. Data are mean ± S.E.M. from three independent experiments (n = 3), with three technical replicates performed for each […]
(1 picture or pasted object on this page, not shown here)

Experiment [2] concerns the target T1, SUCR1 mutants (variant named in the endpoint) (Homo sapiens, UniProt Q9BXA5, F72Y).
T1 construct: The full-length human SUCR1 and mutations were fused after the HA signal peptide and Flag tag; HA signal peptide (N); Flag (N); expressed in transfected cells; host or cells: HEK293 stably expressing Gα16 (pcDNA6.0, transient electroporation)
T1 sequence (Q9BXA5 1-334 F72Y): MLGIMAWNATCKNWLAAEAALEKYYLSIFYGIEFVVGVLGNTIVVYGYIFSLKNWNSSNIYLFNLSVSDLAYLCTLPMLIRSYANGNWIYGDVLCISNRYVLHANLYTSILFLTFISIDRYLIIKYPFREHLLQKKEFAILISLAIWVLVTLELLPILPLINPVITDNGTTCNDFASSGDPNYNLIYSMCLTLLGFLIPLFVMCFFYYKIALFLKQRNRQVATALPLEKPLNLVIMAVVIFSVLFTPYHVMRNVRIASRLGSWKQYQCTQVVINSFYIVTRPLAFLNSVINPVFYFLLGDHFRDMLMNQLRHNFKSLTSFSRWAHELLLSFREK
In words: Calcium mobilization assay, SUCR1 mutants in HEK293 stably expressing Gα16.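 As to Emax: percent of the maximal response to succinate.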 Type of experiment: cell-based.
Experimental: (§1) The full-length human SUCR1 and mutations were fused after the HA signal peptide and Flag tag. The constructs were cloned into pcDNA6.0 vector for HEK293 system.
(§2) HEK293 cells were obtained from ATCC (Manassas, VA, USA) and cultured in DMEM supplemented with 10% (v/v) FBS, 100 mg/L penicillin, and 100 mg/L streptomycin in 5% CO2 at 37 °C. For transient transfection, ~2.5 × 10^6 cells were mixed with 2 µg plasmids in 200 µL transfection buffer, and electroporation was carried out with a Scientz-2C electroporation apparatus (Scientz Biotech, Ningbo, China). The experiments were carried out 24 h after transfection. HEK293 cell lines stably expressing Gα16 were constructed by our laboratory.
(§3) For OXGR1, plasmids were transfected into HEK293 (other receptors were transfected into HEK293 stably expressing Gα16) and seeded at a density of 4 × 10^4 per well into 96-well culture plates and incubated for 24 h at 37 °C in 5% CO2. The next day, Cells were incubated with 2 μM/L Fluo-4 AM in HBSS supplemented with 5.6 mM/L D-glucose and 250 μM/L sulfinpyrazone at 37 °C for 45 min. […] Three independent measurements were repeated, i.e., three different transfections, with three technical replicates performed for each experiment. EC50 and Emax values for each curve were calculated by Prism 8.0 software (GraphPad Software).

In experiment [3] the target is T2, SUCR1 mutants (variant named in the endpoint) (Homo sapiens, UniProt Q9BXA5, F285A/F72Y/L102F).
T2 construct: The full-length human SUCR1 and mutations were fused after the HA signal peptide and Flag tag; HA signal peptide (N); Flag (N); expressed in transfected cells; host or cells: HEK293 stably expressing Gα16 (pcDNA6.0, transient electroporation)
T2 sequence (Q9BXA5 1-334 F72Y/L102F/F285A): T1 sequence (Q9BXA5 1-334 F72Y) with L102F, F285A
Described as above. Type of experiment: cell-based.
Experimental: as §1, §2, §3

Experiment [4] has as its target T3, SUCR1 mutants (variant named in the endpoint) (Homo sapiens, UniProt Q9BXA5, F285A).
T3 construct: The full-length human SUCR1 and mutations were fused after the HA signal peptide and Flag tag; HA signal peptide (N); Flag (N); expressed in transfected cells; host or cells: HEK293 stably expressing Gα16 (pcDNA6.0, transient electroporation)
T3 sequence (Q9BXA5 1-334 F285A): T1 sequence (Q9BXA5 1-334 F72Y) with Y72F, F285A
The description is as above. It is filed as cell-based.
Experimental: as §1, §2, §3

Experiment [5] addresses T4, SUCR1 mutants (variant named in the endpoint) (Homo sapiens, UniProt Q9BXA5, F175L/I157M).
T4 construct: The full-length human SUCR1 and mutations were fused after the HA signal peptide and Flag tag; HA signal peptide (N); Flag (N); expressed in transfected cells; host or cells: HEK293 stably expressing Gα16 (pcDNA6.0, transient electroporation)
T4 sequence (Q9BXA5 1-334 I157M/F175L): T1 sequence (Q9BXA5 1-334 F72Y) with Y72F, I157M, F175L
The experiment is described as above. Type of experiment: cell-based.
Experimental: as §1, §2, §3

In experiment [6] the target is T5, SUCR1 mutants (variant named in the endpoint) (Homo sapiens, UniProt Q9BXA5, F175L).
T5 construct: The full-length human SUCR1 and mutations were fused after the HA signal peptide and Flag tag; HA signal peptide (N); Flag (N); expressed in transfected cells; host or cells: HEK293 stably expressing Gα16 (pcDNA6.0, transient electroporation)
T5 sequence (Q9BXA5 1-334 F175L): T1 sequence (Q9BXA5 1-334 F72Y) with Y72F, F175L
The description is as above. The note with it: for EC50: SUCR1 F175L. Type of experiment: cell-based.
Experimental: as §1, §2, §3

In experiment [7] the target is T6, SUCR1 mutants (variant named in the endpoint) (Homo sapiens, UniProt Q9BXA5, F285A/F72Y/Y248F).
T6 construct: The full-length human SUCR1 and mutations were fused after the HA signal peptide and Flag tag; HA signal peptide (N); Flag (N); expressed in transfected cells; host or cells: HEK293 stably expressing Gα16 (pcDNA6.0, transient electroporation)
T6 sequence (Q9BXA5 1-334 F72Y/Y248F/F285A): T1 sequence (Q9BXA5 1-334 F72Y) with Y248F, F285A
Described as above. It is filed as cell-based.
Experimental: as §1, §2, §3

[8] abbreviates: HEK293, OXGR1 WT, each ligand normalized to WT (100%).
Where [9] appears, read: HEK293, OXGR1 WT, normalized to the maximal response elicited by AKG (100%).

Experimental for OXGR1: as §1, §2, §3

Consider `C=C(CC(=O)O)C(=O)O` [ITA, itaconate], for which the EC50 is 83 µM at OXGR1 (EC50, OXGR1 WT, Gq-mediated calcium signaling (Fig. 1D, Appendix Table S1)) and 340 ± 300 µM in experiment [6]. Besides, the Emax is 100 ± 10% at OXGR1 (setting [8]); 117 ± 4% on OXGR1 (setting [9]); 3 ± 3% in experiment [2] (HEK293, SUCR1 F72Y, Emax relative to the SUC); 43 ± 5% in experiment [3] (HEK293, SUCR1 F72Y-L102F-F285A, Emax relative to the SUC); 6.3 ± 3% in experiment [4] (HEK293, SUCR1 F285A, Emax relative to the SUC); -3.1 ± 4% in experiment [5] (HEK293, SUCR1 F175L-I157M, Emax relative to the SUC). Moreover, the Emax in experiment [7] (HEK293, SUCR1 F72Y-F285A-Y248F, Emax relative to the SUC) was 2.2 ± 2%. For the same compound, the “signal at concentrations exceeding the reported range” value on OXGR1 is “decrease in signal”. The “activity in OXGR1-transfected HEK293 cells” value on OXGR1 is “robust activity”. The “activity in mock-transfected cells” value in experiment [1] is “no activity”. Moreover, the “ITA responsiveness of SUCR1-F175L” value in experiment [6] (in words) is given as “partial ITA responsiveness”.

Turning to `O=C(O)CCC(=O)O` [SUC, succinate], the results for the Emax on OXGR1 (setting [8]) and at OXGR1 (setting [9]) were 100 ± 4% and 154 ± 4%, respectively. Also, at OXGR1, the “activity in OXGR1-transfected HEK293 cells” value is recorded as “robust activity”. The “activity in mock-transfected cells” value in experiment [1] is “no activity”. Besides, the EC50 is 1800 ± 300 µM in experiment [2] (SUCR1 F72Y); 3900 ± 1300 µM in experiment [3] (SUCR1 F72Y-L102F-F285A); 3600 ± 800 µM in experiment [4] (SUCR1 F285A); 150 ± 9 µM in experiment [5] (SUCR1 F175L-I157M); 18 ± 3 µM in experiment [6]; 2700 ± 780 µM in experiment [7] (SUCR1 F72Y-F285A-Y248F).

In the case of `O=C(O)CCC(=O)C(=O)O` [AKG, α-ketoglutarate], the Emax was 100 ± 11% on OXGR1 (HEK293); 4.1 ± 2% in experiment [2] (HEK293); 5 ± 1% in experiment [3] (HEK293); 1.7 ± 3% in experiment [4] (HEK293); -6.6 ± 3% in experiment [5] (HEK293); 3.5 ± 1% in experiment [6] (HEK293). Further, the Emax in experiment [7] (HEK293) came to 19 ± 2%. The “signal at concentrations exceeding the reported range” value at OXGR1 was “decrease in signal”. Also, at OXGR1, the “activity in OXGR1-transfected HEK293 cells” value was “robust activity”. The “activity in mock-transfected cells” value in experiment [1] is “no activity”.
